Assay results: paper PMC4336331, “Novel Receptor-Derived Cyclopeptides to Treat Heart Failure Caused by Anti-β1-Adrenoceptor Antibodies in a Human-Analogous Rat Model” (PLoS ONE, 2015)
Peptide text beside a SMILES is read from it.

Tested on: CD4+ T-cells
Assay: Recall-assay with splenic CD4+ T-cells
Format: cell-based, Lewis/CrlBR rats
Details: 1.0 μg/ml β1EC2-CP; T-cells from spleens of treated and untreated rats; [3H]-thymidine (Fig. 5B-D)
Procedure: (a) Recall-assays with T-cells from spleens of immunised untreated vs. β1EC2-CP-treated animals were conducted as described in [60]. In brief, to purify CD4^+ T-cells from the splenic cell preparations, B-cells and CD8^+ T-cells were depleted by commercially available magnetic beads (MACS, Miltenyi Biotec, Bergisch-Gladbach, Germany) yielding a purity >85%. 1x10^5 of the purified CD4^+ T-cells were then co-incubated in 96-well plates with 1x10^6 irradiated thymic antigen presenting cells (prepared from a younger rat). Reagents added in the different assays were 1.0 μg/ml β1EC2-CP, 1.0 μg/ml tuberculin purified protein derivative (PPD, internal control), 1.0 μg/ml glutathion-S-transferase (GST), as well as 1.0 and 0.1 μg/ml GST/β1EC2-fusion proteins (FP), respectively. Measured T-cell reactivities were normalised to medium. After 48 h of incubation the cells were pulsed with 1.25 μCi/well [^3H]-thymidine and further incubated for 16 h before the cells were harvested; the DNA-incorporated radioactivity was measured using a beta-plate counter.
Fig 5 Immunology of cyclic β1EC2-peptides: fate of β1EC2-specific T- and B-cells. (A) Titer-course of anti-β1EC2-abs in β1EC2-CP-treated rats during the first 6 months of the prevention-study before and 24h after cyclopeptide-injection. […] For better readability error-bars are not shown in the graph. […]

## CC(C)[C@@H]1NC(=O)[C@H](Cc2ccccc2)NC(=O)[C@H](CC(=O)O)NC(=O)[C@H](CS)NC(=O)[C@H](CS)NC(=O)[C@H](CCCCN)NC(=O)[C@@H]2CCCN2C(=O)[C@H](CC(=O)O)NC(=O)[C@H](CC(N)=O)NC(=O)[C@H](Cc2ccc(O)cc2)NC(=O)[C@H](CS)NC(=O)[C@H](CCCNC(=N)N)NC(=O)[C@H](CCCNC(=N)N)NC(=O)[C@H](C)NC(=O)[C@H](CCC(=O)O)NC(=O)[C@H](CC(=O)O)NC(=O)[C@H](CO)NC(=O)[C@H](CCC(=O)O)NC(=O)[C@H](C)NC(=O)[C@H](CCCNC(=N)N)NC(=O)[C@H](C)NC(=O)[C@H](CCC(N)=O)NC(=O)CNC(=O)[C@H](CCCNC(=N)N)NC(=O)[C@H](CC(N)=O)NC(=O)[C@H]([C@@H](C)O)NC1=O [β1EC2-CP] (cyclo(AESDEARRCYNDPKCCDFVTNRGQAR))
  in vitro recall response of purified CD4+ T-cells, in words: clearly responded to the FP but not to β1EC2-CP
